Results on four molecules are retold here after patent US20160045472A1, “UROLITHIN B FOR MUSCLE GROWTH” (PROCELL SPRL, priority 2013, published 2016).

For data set [1], the system named is mTOR. Put plainly: mTOR phosphorylation. The format is cell-based. The source says:
The inventors then have measured mTOR phosphorylation again to reflect protein synthesis and have observed a marginal leucine-induced phosphorylation and a strong urolithin B-induced phosphorylation.

The subject of data set [2] is C2C12 murine skeletal muscle myoblasts. Description: diameter of C2C12 myotubes (anti-desmin labelling). It is filed as cell-based. The conditions noted are these: for mean diameter size of myotubes: C2C12 myotubes, urolithin B 15 μM 24 h, TNF-alpha 10 ng/mL 4 h, leucine 5 mM. The procedure: The inventors selected C2C12 murine skeletal muscle myoblasts for measuring the effect of polyphenols on muscle metabolism, especially when submitted to inflammatory stress (e.g. upon TNF-alpha exposure). In these conditions, anabolism is blocked.
C2C12 myoblasts were differentiated for 4 days using 1% horse serum and 1% penicillin/streptomycin. The cells were thereafter grown for 24 h either with the same differentiation medium or with the differentiation medium supplemented with 15 μM urolithin B (conditions 5-8 of FIGS. 2-4 and of Table 1). Then the cells were grown either with the same differentiation medium or in the differentiation medium supplemented with 10 ng/mL TNF-alpha for 4 h (conditions 3-4 and 7-8 of FIGS. 2-4 and of Table 1). Thereafter, the cells were grown either with the same differentiation medium or in the differentiation medium supplemented with 5 mM leucine (conditions 2, 4, 6 and 8 of FIGS. 2-4 and of Table 1). The myotubes were labelled using anti-desmin antibodies, and nuclei labelling by Hoechst staining. Urolithin B consistently stimulates the diameter of myotubes.

Data set [3] deals with androgen receptor. Description: androgen receptor agonism (concluded from bicalutamide blockade). It is filed as cell-based. The text has this: Finally, the inventors have measured the effect of rapamycin, on another mTOR inhibitor and of the anti-androgen bicalutamide (FIGS. 5-6 show the effect on the size of the muscular fibres) on the urolithin B-induced effects (including on the phosphorylation on mTOR, of AMPK, . . . ) and conclude that urolithin B acts upon binding and activating the androgen receptor, then by releasing the AMPK-inhibition on mTOR, increases protein synthesis in muscle cells, then the diameter of muscle fibres.

The test system of data set [4] is P70S6k. Description: P70S6k phosphorylation. It is filed as cell-based.
Data set [5] deals with breast and on prostate cancer cell lines. As to conditions: cited from earlier work.
The test system of data set [6] is PRAS40. Put plainly: PRAS40 phosphorylation. It is filed as cell-based. The source says: (§1) The inventors then have measured Akt and PRAS40 phosphorylation still to analyse possible metabolism pathways. However, besides a tendency of synergy between the leucine and urolithin B addition, no major difference in phosphorylation patterns were observed.
The conditions of data set [7]: human patients fed with pomegranate extract; compared with urolithin A; cited from earlier work.
The conditions of data set [8]: compared with urolithins A, C and D and whole polyphenol extract; cited from earlier work.
For data set [9], the system named is C2C12 myoblasts. Description: toxicity of urolithin B addition. It is filed as cell-based, murine. As to conditions: concentrations of up to 40 μM. The procedure: The inventors have firstly measured if the addition of urolithin B presents some toxicity, but no toxicity was measured for concentrations of up to 40 μM.
The subject of data set [10] is denervated muscle. Put plainly: weight loss of denervated muscle, intravenous. The format is in vivo. The conditions noted are these: mammal.
For data set [11], the system named is Akt. Put plainly: Akt phosphorylation. The format is cell-based.
Description: as §1

Data set [12] concerns AMPK. Description: AMPK phosphorylation. The format is cell-based.

For `CC(C)C[C@H](N)C(=O)O` [Leucine, leucine], the mTOR phosphorylation result in data set [1] is “marginal”. The “mean diameter size of myotubes” value in data set [2] came out at 25.5.

For `O=c1oc2cc(O)ccc2c2ccc(O)cc12` [urolithin A, reference compound], the size of myotubes result in [2] (up to 10 μM urolithin A, vs control) was “does not increase”. In addition, the androgen-receptor agonist entry in [3] is recorded as “not”. Moreover, the “induction of P70S6k phosphorylation” value in [4] is “almost no induction”. The anti cancer activity result in [5] is recorded as “direct anti cancer activity”.

As to `O=c1oc2cc(O)ccc2c2ccccc12` [urolithin B], the PRAS40 phosphorylation result in data set [6] was “does not induce”. Moreover, the mTOR phosphorylation entry in data set [1] was “strong”. The “mean diameter size of myotubes” value in [2] amounted to 32.6. Further, the size of myotubes entry in [2] (urolithin B at 15 μM) is given as “significantly increased”. For the same molecule, the androgen-receptor agonist result in data set [3] was “agonist”. Also, in [7], the “amount in the blood” value is recorded as “much lower”. Further, in [8], the “antioxidant and anti-inflammatory properties” value is “much weaker”. Besides, the toxicity result in data set [9] is “no toxicity”. Moreover, the anti cancer activity result in data set [5] is “direct anti cancer activity”. Also, in data set [10], the “weight loss of denervated muscle” value is “prevents”. Besides, in [11], the Akt phosphorylation entry is “does not induce”. Besides, the AMPK phosphorylation result in data set [12] is “strong reduction”.

In the case of TNFa, the “mean diameter size of myotubes” value in data set [2] is 16.7.
